Results reported in US11364218B2, “Method of treating or preventing mood disorders, mental disorders, and/or chronic fatigue syndrome” (priority 2016, dated 2022).

How the values were obtained:
[1] = test system: mouse; experiment: forced swimming test in mouse (antidepressant action); assay type: in vivo; settings: for Immobile time average value / non-moving time: male ICR mice; for Immobile time average value: single forced oral dose 1 h before test (methocarbamol 200 mg/kg; etizolam 0.033 mg/kg), non-moving time in last 7 of 10 min, n=10; for non-moving time: single oral dose 1 h before test (methocarbamol 200 mg/kg; etizolam 0.033 mg/kg), last 7 of 10 min, medium control 230.8 seconds
Text: The antidepressant action of a test substance may be evaluated using a “forced swimming method” in a mouse model.
The forced swimming test in mouse models is an animal experimental method for confirming the antidepressant activity proposed by Porsalt (Arch. Int, pharmacydn. 229.327-336 (1977)).
A mouse placed into a pool indicates either an active state or a non-moving state. Decreases in the non-moving state of the mouse is used as an index to confirm the antidepressant action of a pharmaceutical composition.
The pool used for forced swimming was a glass cylindrical container 30 cm in height and 16 cm in inner diameter filled at a water depth of 20 cm at 25° c.
One hour before the test, 10 mL/kg of the above prepared methocarbamol aqueous solution was administered to the mouse only once (200 mg/kg in methocarbamol conversion).
The administration route was a forced oral administration using an installed mice oral administration sonde made by FUCHIGAMI with a syringe for injection made by TERUMO.
After one hour of forced administration, the mouse was placed in the forced swimming pool described above and left for 10 minutes.
The first three minutes after entering were considered a conditioning period, and the mouse's non-moving time in the remaining 7 minutes was measured.
“Non-motion” was defined by the mouse not moving the anterior limb and the posterior limb, and by a state in which the upper side of the neck is lifted from the water surface and floats.
The “non-moving time” was the sum of “non-motion” time.
The test was repeated 10 times for each mouse, and an average value was calculated.
An etizolam aqueous solution was used in place of a methocarbamol aqueous solution. The same test as described above (1) was performed, but with the administration amount converted to etizolam usage at 0.0333 mg/kg.
Distilled water not containing a pharmaceutical was used in place of the methocarbamol aqueous solution in the same manner as described above (1).
The average non-moving time values of the medium control group (n=10), the examples, and comparative examples (n=10) were compared with each other.

[2] = test system: depression patients; experiment: Test for administration to depression patients; assay type: in vivo, human
Protocol: Test for administration to depression patients (embodiment 1) A 500 mg bolaxin tablet (manufactured by Ying-Yuan chemical pharmaceutical co. ltd.) and 500 mg-containing (methocarbamol content 76% mass) were prepared. A subject suffering from depression for two or more years was selected. A pharmaceutical composition was administered to the patient three times a day, and the administration was continued for one week. The dose on the initial day was 3.0 to 4.5 g/day (converted to methocarbamol). After observing the patient's state, it was increased to 6.0 g/day (converted to methocarbamol). The regular drug in addition to the tested pharmaceutical composition was continuously taken, but drinking was prohibited during the test. After one week, a potential depression improvement effect before and after administration was evaluated. The evaluation investigated a significant difference in two-term judgment of two related groups. The evaluation was judged based on a declaration of whether the subjects felt an improvement in thinking, desires, and fatigue.

[3] = N=5 depression patients, bolaxin tablets three times a day for one week, 3.0 to 4.5 g/day increased to 6.0 g/day as methocarbamol

| Structure (SMILES) | Immobile time average value [1] [s] | non-moving time [1] [s] | antidepressant effect compared with etizolam group (forced swimming) ([1]; methocarbamol 200 mg/kg oral vs etizolam 0.033 mg/kg oral) | Effective (subjects declaring improvement in thinking, desires and fatigue) [2, 3] [persons] | No effect [2, 3] [persons] | depression treatment effect ([2]; depression patients, one week of administration) |
| --- | --- | --- | --- | --- | --- | --- |
| CCc1cc2c(s1)-n1c(C)nnc1CN=C2c1ccccc1Cl [Reagent E-1, Etizolam] | 107.3 | 107.3 | – | – | – | – |
| COc1ccccc1OCC(O)COC(N)=O (centres unmarked) [Reagent M-1, Methocarbamol] | 157.7 | 157.7 | essentially the same effect as the etizolam administration group | 5 | 0 | beneficial depression treatment effect |
